Results published in ChEMBL document CHEMBL1151140, “Enantiomeric Relationships and Anthelmintic Activity of Dysinin Derivatives from Dysidea Marine Sponges” (J Nat Prod, 1990).
Active and inactive are the calls of the source. The rule behind the calls is not given here.

Columns and labels:
[1] = test system: Nippostrongylus brasiliensis; test: Anthelmintic activity against Nippostrongylus brasiliensis at 50 ug/ml; assay type: functional, organism-based
[2] = Anthelmintic activity against Hypselodoris nana at 1000 ppm; assay type: functional
Nippostrongylus = test: Anthelmintic activity against Nippostrongylus dubias at 1000 ppm; assay type: functional, organism-based

In the case of `CC(=O)SCC1=C[C@H]2Cc3occc3C(C)(C)[C@@H]2CC1`, the Activity [1] is reported as “Active”.
In the case of `CO[C@]12C[C@@H]3C=C(CSC(C)=O)CC[C@H]3C(C)(C)C1=CC(=O)O2`, the Activity [1] is reported as “inactive”.
With `CC1(C)c2ccoc2C[C@@H]2C=C(CSSCC3=C[C@H]4Cc5occc5C(C)(C)[C@@H]4CC3)CC[C@H]21` the Activity [1] was “Active”.
For `CC1=C[C@H]2Cc3occc3C(C)(C)[C@@H]2CC1`, the Activity [1] was “Active”, the Activity [2] was “inactive” and the Activity (Nippostrongylus) was “inactive”.
